The term solubility denotes the concentration that dissolves in the medium under given conditions. A higher solubility goes with much dissolved substance.

≈ marks a conversion by molar mass, not a printed value.

The results in this text go back to patent US9795679B2, “Biodegradable compositions suitable for controlled release” (INGELL TECHNOLOGIES HOLDING B.V., priority 2011, dated 2017).

The data set in a line: Celecoxib solubility in PBS with Tween 80. The settings on record: PBS with 0.2% Tween 80, aqueous with cosolvent or surfactant or cyclodextrin. Format: physicochemical.

For `Cc1ccc(-c2cc(C(F)(F)F)nn2-c2ccc(S(N)(=O)=O)cc2)cc1` [celecoxib], the solubility fell in the range of 100 to 200 µg/mL (≈ 262 to 524 µM).
